The test system of the experiment is HEK293 dopamine receptor CRE-luciferase, antagonist mode. The experiment can be described thus: inhibition of dopamine-stimulated CRE-luciferase signal, dose response, counter-screen for LGR2 project, cell-based, HEK293, luminescence, dry powder (AID 743501). On the technique in general: The purpose of a counterscreen is to sort out artefacts and off-target activity.

Each structure is given as a SMILES string. Activity calls are given as the source filed them.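 How the source made its calls: active means half-inhibitory concentration IC50 below 35 µM against dopamine receptor luciferase signal; inactive means the rest.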

From PubChem BioAssay AID743501 (Broad Institute, 2014) come the findings set out here.

Take `C[C@H](CO)N1C[C@H](C)[C@H](CN(C)C(=O)Nc2ccc(F)cc2)OCCCC[C@H](C)Oc2ccc(NC(=O)C3CCCCC3)cc2C1=O`: the IC50 is less than 35 µM. As for `C[C@H](CO)N1C[C@H](C)[C@H](CN(C)C(=O)Nc2ccccc2)OCCCC[C@H](C)Oc2ccc(NC(=O)C3CCCCC3)cc2C1=O`, the half-maximal inhibitory concentration (IC50) was less than 35 µM. In the case of `C[C@H](CO)N1C[C@H](C)[C@H](CN(C)C(=O)Nc2ccc3c(c2)OCO3)OCCCC[C@H](C)Oc2ccc(NC(=O)C3CCCCC3)cc2C1=O`, the IC50 is less than 35 µM.

In the case of `COc1ccc(NC(=O)N(C)C[C@@H]2OCCCC[C@H](C)Oc3ccc(NC(=O)C4CCCCC4)cc3C(=O)N([C@H](C)CO)C[C@@H]2C)cc1`, the IC50 was > 35 µM (inactive). With `C[C@@H]1CCCCO[C@H](CN(C)C(=O)Nc2ccc(F)cc2)[C@H](C)CN([C@@H](C)CO)C(=O)c2cc(NC(=O)C3CCCCC3)ccc2O1` the figure was > 35 µM (inactive).

Broadly, the IC50 is the midpoint of a concentration-inhibition curve.
